Patent US20030166018A1, “Methods for identifying agents that modulate mast cell degranulation” (priority 2002, published 2003)

System: mast cells
Assay: Radioprotection of mast cells from γ-irradiation-induced apoptosis (anti-annexin V and propidium iodide staining)
Assay type: cell-based
Settings: cultured mast cells from wild type and SWAP-70 ko/ko mice (similar degree in both); 100 ng/ml SCF, with or without IL-3; irradiated 0-160 Gy; FIG. 3B
Excerpt: Analysis of peritoneal fluid by Percol gradient centrifugation used step-gradients (increments 0.005) with densities of Percol in PBS, 2% FCS from 1.07 to 1.09. Cells accumulating in the pellet and those banding at 1.09 and 1.085 densities stained intensively with toluidine blue and with berberine sulfate and are regarded as mature mast cells. Assays for apoptosis used staining of cells with propidium iodide or anti annexin V antibodies as described (Ref. 15). Immunofluorescence and Western blotting were performed as described (Ref. 24).
Mast cells from wild type and SWAP-70^ko/ko mice were cultured in the presence or absence of 100 ng/ml SCF, with or without IL-3, and irradiated with various doses (0-160 Gy). Subsequently, apoptosis was measured by staining with anti-annexin V and propidium iodine. […] This elevated sensitivity was confirmed in a series of irradiation experiments in which mast cells were compared to other primary cell types, including thymocytes, preB cells, and fibroblasts. All of these non-mast cell were of identical sensitivity for γ-irradiation regardless of their SWAP-70 genotype. No increased sensitivity of SWAP-70 deficient mast cells for UV irradiation was observed.

## stem cell factor [SCF]
  protection from γ-irradiation-induced apoptosis: 3 fold
